Experiments:
[1] = Rat Carrageenan Foot Pad Edema Test; type: in vivo, Male Sprague-Dawley rats; settings: oral, dosed 1 h before carrageenan, foot volume 3 h after carrageenan, vs placebo
Method: (§1) The carrageenan foot edema test was performed with materials, reagents and procedures essentially as described by Winter et al (Proc. Soc. Exp. Biol. Med., 111, 544 (1962)). Male Sprague-Dawley rats were selected in each group so that the average body weight was as close as possible. Rats were fasted with free access to water for over sixteen hours prior to the test. The rats were dosed orally (1 mL) with compounds suspended in vehicle containing 0.5% methylcellulose and 0.025% surfactant, or with vehicle alone. One hour later a subplantar injection of 0.1 mL of 1% solution of carrageenan/sterile 0.9% saline was administered and the volume of the injected foot was measured with a displacement plethysmometer connected to a pressure transducer with a digital indicator. Three hours after the injection of the carrageenan, the volume of the foot was again measured. The average foot swelling in a group of drug-treated animals was compared with that of a group of placebo-treated animals and the percentage inhibition of edema was determined (Otterness and Bliven, Laboratory Models for Testing NSAIDs, in Non-steroidal Anti-Inflammatory Drugs, (J. Lombardino, ed. 1985)).

[2] = Rat Carrageenan-induced Analgesia Test; type: in vivo, Male Sprague-Dawley rats; settings: oral, inhibition of hyperalgesic foot withdrawal, 3 h after carrageenan
Method: as §1
The analgesia test using rat carrageenan was performed with materials, reagents and procedures essentially as described by Hargreaves et al (Pain, 32, 77 (1988)). […] The time until the rat withdraws its foot was then measured. […]

SMILES: CS(=O)(=O)c1ccc(-n2nc(C(F)(F)F)cc2-c2ccc(F)cc2)cc1 [Example 1, 5-(4-Fluorophenyl)-1-[4-(methylsulfonyl)phenyl]-3-(trifluoromethyl)pyrazole]
- RAT PAW EDEMA % Inhibition @ 10 mg/kg body weight [1]: 38%
- ANALGESIA % Inhibition @ 20 mg/kg body weight [2]: 37%

From patent publication US5475018A, “1,5-diphenyl pyrazole compounds for treatment of inflammation” (G. D. Searle & Co., priority 1993, dated 1995)
